The results in this text go back to PubChem BioAssay (NCI).

SMILES strings stand for the structures.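 Where inhibition never reached the appropriate level, the endpoint shown equals the highest concentration tested. Otherwise, values were interpolated linearly from a five-concentration, 48-hour dose response in 96-well plates. The concentration for 50% growth inhibition is given as GI50. Definition used: TGI = concentration required for complete inhibition of growth.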

Among the test systems are OVCAR-5 ovarian; IGROV1 ovarian; HCT-116 colon; NCI/ADR-RES ovarian; RXF 393 renal; SK-MEL-2 melanoma; HS 578T breast; A498 renal; NCI-H23 lung; NCI-H460 lung.
What all share (experiment): NCI anticancer screen, dose series, 48 h

`COc1ccc(N2CCN(CN3CCN(c4ccc(OC)cc4)C3)C2)cc1`: the GI50 with OVCAR-5 ovarian was more than 100 µM; in the experiment with IGROV1 ovarian, 17 µM; in the experiment with HCT-116 colon, 20.2 µM; in the experiment with NCI/ADR-RES ovarian it was more than 100 µM; with RXF 393 renal, more than 100 µM; in the experiment on SK-MEL-2 melanoma it was more than 100 µM. Moreover, the GI50 with HS 578T breast was more than 100 µM; in the experiment with A498 renal it was 1.82 µM; with NCI-H23 lung, 48 µM; in the experiment on NCI-H460 lung, more than 100 µM. The TGI was more than 100 µM in the experiment with OVCAR-5 ovarian; more than 100 µM with IGROV1 ovarian; 50 µM in the experiment on HCT-116 colon; more than 100 µM in the experiment on NCI/ADR-RES ovarian; more than 100 µM with RXF 393 renal; more than 100 µM with SK-MEL-2 melanoma. Further, the TGI in the experiment with HS 578T breast, in the experiment with A498 renal, in the experiment on NCI-H23 lung and in the experiment on NCI-H460 lung was more than 100 µM throughout.
On to `COc1ccc(C2=CC(c3ccc(Oc4ccnc5cc(Cl)ccc45)c(OC)c3)c3c(nc(OC)[nH]c3=O)N2)cc1` (stereo not given), for which the GI50 was 24.6 µM in the experiment with OVCAR-5 ovarian; 26 µM with IGROV1 ovarian; 3.62 µM in the experiment with HCT-116 colon; 9.88 µM in the experiment on NCI/ADR-RES ovarian; 21.8 µM with RXF 393 renal; 31.6 µM with SK-MEL-2 melanoma. For the same compound, the GI50 was 7.04 µM in the experiment on HS 578T breast, 48 µM with A498 renal, 9.03 µM in the experiment with NCI-H23 lung and 6.51 µM with NCI-H460 lung. Besides, the TGI in the experiment on OVCAR-5 ovarian, in the experiment with IGROV1 ovarian, with HCT-116 colon, in the experiment with NCI/ADR-RES ovarian, in the experiment with RXF 393 renal and in the experiment with SK-MEL-2 melanoma was more than 100 µM each time. Further, the TGI in the experiment with HS 578T breast, with A498 renal, with NCI-H23 lung and in the experiment with NCI-H460 lung was more than 100 µM throughout.
`Cc1cc(C(=O)N[C@@H](CCC(=O)O)C(=O)O)sc1CC[C@@H]1CNc2nc(N)[nH]c(=O)c2C1`: the GI50 in the experiment with OVCAR-5 ovarian was 0.026 µM; with IGROV1 ovarian, 0.0463 µM; in the experiment with HCT-116 colon, less than 0.0127 µM; in the experiment with NCI/ADR-RES ovarian, 0.0481 µM; in the experiment on RXF 393 renal it was less than 0.0153 µM; with SK-MEL-2 melanoma it was 7.78 µM. In addition, the GI50 with HS 578T breast was 0.114 µM; in the experiment with A498 renal, 0.0598 µM; in the experiment with NCI-H23 lung, 0.0952 µM; in the experiment with NCI-H460 lung, less than 0.0119 µM. The TGI with OVCAR-5 ovarian, in the experiment on IGROV1 ovarian, with HCT-116 colon, in the experiment on NCI/ADR-RES ovarian, in the experiment with RXF 393 renal and in the experiment with SK-MEL-2 melanoma was more than 100 µM each time. The TGI in the experiment with HS 578T breast, in the experiment with A498 renal, in the experiment on NCI-H23 lung and in the experiment on NCI-H460 lung was more than 100 µM each time.
For `COc1ccccc1-c1ccc2nc(NC(=O)Nc3cc(C(F)(F)F)cc(C(F)(F)F)c3)sc2c1`, the GI50 in the experiment with OVCAR-5 ovarian is 2.54 µM; with IGROV1 ovarian, 2.83 µM; in the experiment on HCT-116 colon, 1.07 µM; with NCI/ADR-RES ovarian, 2.37 µM; in the experiment on RXF 393 renal, 2.19 µM; with SK-MEL-2 melanoma, 2.09 µM. For the same compound, the GI50 in the experiment with HS 578T breast is 2.35 µM; with A498 renal, 1.64 µM; in the experiment on NCI-H23 lung it was 2.02 µM; with NCI-H460 lung, 2.26 µM. The TGI with OVCAR-5 ovarian came out at 9.66 µM; with IGROV1 ovarian, 10.7 µM; in the experiment on HCT-116 colon it was 2.45 µM; in the experiment on NCI/ADR-RES ovarian, 7.19 µM; in the experiment on RXF 393 renal, 6.18 µM; with SK-MEL-2 melanoma it was 6.09 µM. In addition, the TGI in the experiment with HS 578T breast was found to be 7.67 µM; in the experiment on A498 renal, 3.9 µM; with NCI-H23 lung it was 7.09 µM; in the experiment on NCI-H460 lung it was 6.12 µM.
For the compound `CSC1=Nc2c(c(C)c(-c3ccccc3)n2CCCCl)C2=NC(=O)CN12`, the GI50 in the experiment with OVCAR-5 ovarian is 11.6 µM; in the experiment with IGROV1 ovarian, 3.59 µM; in the experiment on HCT-116 colon, 3.19 µM; in the experiment with NCI/ADR-RES ovarian it was 4.29 µM; in the experiment with RXF 393 renal, 11.3 µM; with SK-MEL-2 melanoma it was 10.4 µM. Besides, the GI50 was 6.3 µM in the experiment with HS 578T breast, 3.89 µM in the experiment with A498 renal, 8.26 µM in the experiment with NCI-H23 lung and 3.7 µM in the experiment with NCI-H460 lung. Further, the TGI with OVCAR-5 ovarian is 37.8 µM; with IGROV1 ovarian it was 21.1 µM; with HCT-116 colon, 47.7 µM; in the experiment with NCI/ADR-RES ovarian it was more than 100 µM; with RXF 393 renal, 29.8 µM; with SK-MEL-2 melanoma it was 27.6 µM. Further, the TGI is 35 µM in the experiment on HS 578T breast, 15 µM in the experiment with A498 renal, 46.3 µM with NCI-H23 lung and 15 µM in the experiment with NCI-H460 lung.
As to `COc1ccc2c(O)c(/C=C3\N=Nc4ncccc43)oc2c1C[C@H]1CCNC[C@H]1F`, the GI50 was 0.479 µM in the experiment with OVCAR-5 ovarian; 0.353 µM in the experiment with IGROV1 ovarian; 0.131 µM in the experiment with HCT-116 colon; 3.37 µM in the experiment with NCI/ADR-RES ovarian; 0.183 µM in the experiment with RXF 393 renal; 1.1 µM in the experiment with SK-MEL-2 melanoma. Also, the GI50 in the experiment on HS 578T breast was 0.16 µM; in the experiment on A498 renal, 0.238 µM; with NCI-H23 lung, 0.475 µM; in the experiment with NCI-H460 lung, 0.388 µM. For the same compound, the TGI in the experiment with OVCAR-5 ovarian is 24.6 µM; in the experiment on IGROV1 ovarian, 5.06 µM; in the experiment on HCT-116 colon, 2.15 µM; in the experiment with NCI/ADR-RES ovarian, 28.9 µM; with RXF 393 renal, 0.55 µM; in the experiment with SK-MEL-2 melanoma, 3.73 µM. In addition, the TGI was determined as 5.34 µM in the experiment with HS 578T breast, 2.91 µM in the experiment with A498 renal, 4.7 µM in the experiment with NCI-H23 lung and 1.8 µM in the experiment on NCI-H460 lung.
Regarding `O=C1c2ccccc2C(=O)c2c(NC(=O)C(Cl)CCl)cccc21` (stereo not given), the TGI in the experiment with OVCAR-5 ovarian was 34.1 µM; in the experiment on IGROV1 ovarian, 20 µM; in the experiment with HCT-116 colon, 28.4 µM; in the experiment on NCI/ADR-RES ovarian, more than 77.6 µM; in the experiment with RXF 393 renal, 16.2 µM; in the experiment on SK-MEL-2 melanoma, 12.2 µM. Besides, the TGI in the experiment on HS 578T breast was more than 100 µM; in the experiment on A498 renal it was 36.2 µM; in the experiment with NCI-H23 lung, 11.6 µM; in the experiment with NCI-H460 lung it was 31.1 µM.
